Drawing on ChEMBL document CHEMBL1129518, “Synthesis and pharmacologic evaluation of 2-endo-amino-3-exo-isopropylbicyclo[2.2.1]heptane: a potent imidazoline1 receptor specific agent” (J Med Chem, 1996), this text covers Ki for two compounds.

Usually Ki stands for a dissociation constant, usually derived from enzyme kinetics or from competition with a known ligand.

In test [1] the target is T1, Adrenergic receptor alpha-1 (Homo sapiens, UniProt P35348+P25100+P35368).
T1 sequence (P35348 whole entry): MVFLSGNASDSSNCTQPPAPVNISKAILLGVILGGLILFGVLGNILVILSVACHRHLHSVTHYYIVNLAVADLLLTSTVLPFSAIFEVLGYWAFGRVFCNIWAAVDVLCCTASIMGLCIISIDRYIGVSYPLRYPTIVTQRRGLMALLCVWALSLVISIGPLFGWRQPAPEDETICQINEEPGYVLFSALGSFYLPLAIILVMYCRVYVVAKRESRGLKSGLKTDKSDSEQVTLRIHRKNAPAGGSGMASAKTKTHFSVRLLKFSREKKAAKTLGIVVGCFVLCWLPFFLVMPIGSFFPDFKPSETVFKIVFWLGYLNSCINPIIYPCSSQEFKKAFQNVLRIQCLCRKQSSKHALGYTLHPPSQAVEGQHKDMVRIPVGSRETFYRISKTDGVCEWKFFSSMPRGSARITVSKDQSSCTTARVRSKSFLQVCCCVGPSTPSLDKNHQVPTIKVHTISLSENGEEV
T1 sequence (P25100 whole entry): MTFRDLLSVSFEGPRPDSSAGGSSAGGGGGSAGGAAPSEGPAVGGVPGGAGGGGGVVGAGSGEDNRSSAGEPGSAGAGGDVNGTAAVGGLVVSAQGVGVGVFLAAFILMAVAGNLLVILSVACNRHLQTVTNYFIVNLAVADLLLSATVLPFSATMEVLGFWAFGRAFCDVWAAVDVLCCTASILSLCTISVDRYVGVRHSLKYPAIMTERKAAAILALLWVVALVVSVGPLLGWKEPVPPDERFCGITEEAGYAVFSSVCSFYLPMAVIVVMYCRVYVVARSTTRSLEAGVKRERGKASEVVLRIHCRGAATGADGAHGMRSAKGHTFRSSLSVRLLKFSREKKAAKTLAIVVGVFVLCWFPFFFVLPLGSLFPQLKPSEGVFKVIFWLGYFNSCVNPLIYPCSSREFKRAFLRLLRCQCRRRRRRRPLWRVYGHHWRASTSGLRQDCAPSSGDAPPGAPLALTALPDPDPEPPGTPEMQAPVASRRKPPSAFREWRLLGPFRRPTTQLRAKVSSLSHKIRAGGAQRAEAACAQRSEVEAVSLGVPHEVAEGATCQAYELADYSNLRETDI
T1 sequence (P35368 whole entry): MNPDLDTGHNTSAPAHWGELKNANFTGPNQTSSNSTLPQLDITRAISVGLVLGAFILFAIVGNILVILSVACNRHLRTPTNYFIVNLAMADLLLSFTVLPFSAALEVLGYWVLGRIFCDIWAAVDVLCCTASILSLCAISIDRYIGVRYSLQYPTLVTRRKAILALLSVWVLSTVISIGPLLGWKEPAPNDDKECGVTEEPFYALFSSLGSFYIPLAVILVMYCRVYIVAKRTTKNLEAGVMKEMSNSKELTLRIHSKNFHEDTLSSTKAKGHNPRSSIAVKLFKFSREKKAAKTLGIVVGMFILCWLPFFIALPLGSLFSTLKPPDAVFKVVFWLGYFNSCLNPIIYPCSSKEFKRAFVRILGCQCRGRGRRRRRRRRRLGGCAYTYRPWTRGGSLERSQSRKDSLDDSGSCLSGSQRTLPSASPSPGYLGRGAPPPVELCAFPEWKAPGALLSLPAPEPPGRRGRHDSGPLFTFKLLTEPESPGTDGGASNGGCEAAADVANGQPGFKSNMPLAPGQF
Kind of test: Binding affinity for human brain Alpha-1 adrenergic receptor.

For test [2], the target named is T2, Alpha-2A adrenergic receptor (Homo sapiens, UniProt P08913).
T2 sequence (P08913 whole entry): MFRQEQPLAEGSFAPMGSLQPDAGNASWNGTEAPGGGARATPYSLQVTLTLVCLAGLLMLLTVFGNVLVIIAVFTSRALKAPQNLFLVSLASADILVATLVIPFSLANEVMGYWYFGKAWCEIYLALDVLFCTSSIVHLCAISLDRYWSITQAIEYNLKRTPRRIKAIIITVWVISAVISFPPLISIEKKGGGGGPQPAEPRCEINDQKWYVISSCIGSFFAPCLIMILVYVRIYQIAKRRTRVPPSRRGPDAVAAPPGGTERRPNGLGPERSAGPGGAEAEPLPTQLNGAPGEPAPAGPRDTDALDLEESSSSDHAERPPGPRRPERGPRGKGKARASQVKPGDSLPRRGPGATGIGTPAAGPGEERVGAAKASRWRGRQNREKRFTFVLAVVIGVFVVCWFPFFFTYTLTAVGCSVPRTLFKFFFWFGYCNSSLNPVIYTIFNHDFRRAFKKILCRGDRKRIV
Kind of test: Binding affinity for human Alpha-2A adrenergic receptor.

For test [3], the target named is T3, Alpha-2C adrenergic receptor (Homo sapiens, UniProt P18825).
T3 sequence (P18825 whole entry): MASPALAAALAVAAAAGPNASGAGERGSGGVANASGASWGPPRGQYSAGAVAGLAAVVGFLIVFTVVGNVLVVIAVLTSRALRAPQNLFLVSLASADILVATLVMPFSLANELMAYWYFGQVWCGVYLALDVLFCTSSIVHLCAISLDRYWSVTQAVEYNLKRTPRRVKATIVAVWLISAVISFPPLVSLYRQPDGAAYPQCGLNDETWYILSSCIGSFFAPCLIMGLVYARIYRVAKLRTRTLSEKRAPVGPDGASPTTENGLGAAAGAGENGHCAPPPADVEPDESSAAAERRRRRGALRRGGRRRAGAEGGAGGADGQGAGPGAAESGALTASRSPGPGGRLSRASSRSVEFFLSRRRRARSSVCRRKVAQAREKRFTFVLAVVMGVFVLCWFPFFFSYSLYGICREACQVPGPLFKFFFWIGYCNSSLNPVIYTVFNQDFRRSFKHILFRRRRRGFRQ
Kind of test: Binding affinity for human Alpha-2C adrenergic receptor.

For test [4], the target named is T4, Alpha-2B adrenergic receptor (Rattus norvegicus, UniProt P19328).
T4 sequence (P19328 whole entry): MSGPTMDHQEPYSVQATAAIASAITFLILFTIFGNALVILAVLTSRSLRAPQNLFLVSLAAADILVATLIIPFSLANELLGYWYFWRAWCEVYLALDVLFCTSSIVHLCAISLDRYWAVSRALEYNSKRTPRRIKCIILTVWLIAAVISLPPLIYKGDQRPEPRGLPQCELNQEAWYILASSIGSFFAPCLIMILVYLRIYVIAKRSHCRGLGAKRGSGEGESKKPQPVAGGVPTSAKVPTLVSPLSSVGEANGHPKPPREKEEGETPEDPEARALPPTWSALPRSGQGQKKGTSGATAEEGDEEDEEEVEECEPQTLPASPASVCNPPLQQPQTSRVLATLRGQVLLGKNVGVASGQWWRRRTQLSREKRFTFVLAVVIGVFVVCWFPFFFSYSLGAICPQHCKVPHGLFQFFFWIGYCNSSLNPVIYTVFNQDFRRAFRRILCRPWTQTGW
Kind of test: Binding affinity for rat Alpha-2B adrenergic receptor.

Each structure is given as a SMILES string.

Turning to `CC(C)C1C2CCC(C2)C1N` (stereo not given), the Ki in test [1] is above 100 µM; in test [2] it was above 20 µM; in test [3], above 20 µM; in test [4], above 20 µM.
In the case of `COc1nc(C)nc(Cl)c1NC1=NCCN1` [MOXONIDINE], the Ki in test [1] was above 30 µM.
